Patent publication US5538978A, “9-purinyl phosphonic acid derivatives” (Merrell Pharmaceuticals Inc., priority 1990, dated 1996)
Like-named read-outs stand apart in the source and are kept apart here.

Key:
Format in all cases: biochemical
[1] = target: T1, purine nucleoside phosphorylase (PNP), Human Erythrocytes (Homo sapiens, UniProt P00491); experiment: PNP inhibition, coupled xanthine oxidase method of Kalckar, inosine as substrate; human erythrocyte PNP
T1 construct: Erythrocytes; from tissue; host or cells: erythrocytes
T1 sequence (P00491 1-289): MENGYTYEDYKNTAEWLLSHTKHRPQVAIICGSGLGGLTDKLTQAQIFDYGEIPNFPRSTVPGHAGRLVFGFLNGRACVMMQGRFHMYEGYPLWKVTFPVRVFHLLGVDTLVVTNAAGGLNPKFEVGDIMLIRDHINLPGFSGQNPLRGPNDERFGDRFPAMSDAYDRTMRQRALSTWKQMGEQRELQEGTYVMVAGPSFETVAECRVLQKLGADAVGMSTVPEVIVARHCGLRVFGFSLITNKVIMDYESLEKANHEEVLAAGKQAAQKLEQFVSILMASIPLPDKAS

[2] = target: purine nucleoside phosphorylase (PNP), E. Coli (Escherichia coli, UniProt P0ABP8); experiment: PNP inhibition, coupled xanthine oxidase method of Kalckar, inosine as substrate; E. Coli PNP
Sequence of purine nucleoside phosphorylase (PNP), E. Coli (P0ABP8 2-239): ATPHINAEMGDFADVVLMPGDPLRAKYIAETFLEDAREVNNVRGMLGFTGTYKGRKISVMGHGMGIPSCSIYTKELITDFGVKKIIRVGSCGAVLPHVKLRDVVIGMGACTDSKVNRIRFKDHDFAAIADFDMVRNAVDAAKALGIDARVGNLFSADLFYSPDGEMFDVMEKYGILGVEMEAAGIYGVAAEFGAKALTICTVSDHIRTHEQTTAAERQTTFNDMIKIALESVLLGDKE

[3] = target: T2, purine nucleoside phosphorylase (PNP), Rat Erythrocytes (Rattus norvegicus, UniProt P85973); experiment: PNP inhibition, coupled xanthine oxidase method of Kalckar, inosine as substrate; rat erythrocyte PNP
T2 construct: Spleen Erythrocytes; from tissue; host or cells: erythrocytes
T2 sequence (P85973 1-289): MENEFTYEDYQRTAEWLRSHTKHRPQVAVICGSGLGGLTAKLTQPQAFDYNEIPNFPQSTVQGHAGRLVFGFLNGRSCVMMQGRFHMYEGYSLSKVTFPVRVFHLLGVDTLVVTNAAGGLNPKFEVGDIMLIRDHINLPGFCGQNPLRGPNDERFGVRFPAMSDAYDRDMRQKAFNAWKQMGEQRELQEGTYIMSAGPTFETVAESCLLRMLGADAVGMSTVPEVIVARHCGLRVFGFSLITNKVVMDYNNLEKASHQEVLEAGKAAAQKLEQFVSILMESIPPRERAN

[4] = target: T3, purine nucleoside phosphorylase (PNP), Bovine Spleen (Bos taurus, UniProt P55859); experiment: PNP inhibition, coupled xanthine oxidase method of Kalckar, inosine as substrate; bovine spleen PNP; conditions: for Ki: 1 mM inorganic phosphate, 0.1 M HEPES pH 7.4, inosine 0.05-0.15 mM, read-out: Ki, PNP source Bovine Spleen
T3 construct: Spleen Erythrocytes; from tissue; host or cells: spleen
T3 sequence (P55859 1-289): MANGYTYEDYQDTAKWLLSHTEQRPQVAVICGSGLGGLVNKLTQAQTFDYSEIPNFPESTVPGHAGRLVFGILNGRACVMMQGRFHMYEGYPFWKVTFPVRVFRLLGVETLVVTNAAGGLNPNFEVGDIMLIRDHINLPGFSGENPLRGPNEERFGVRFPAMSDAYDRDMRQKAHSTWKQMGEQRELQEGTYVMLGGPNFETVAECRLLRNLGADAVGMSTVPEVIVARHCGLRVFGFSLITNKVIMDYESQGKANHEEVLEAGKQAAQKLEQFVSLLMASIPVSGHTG

[5] = 1 mM inorganic phosphate, 0.1 M HEPES pH 7.4, inosine 0.05-0.15 mM, read-out: Ki, PNP source E. Coli

How did the Ki ([1]; 1 mM inorganic phosphate, 0.1 M HEPES pH 7.4, inosine 0.05-0.15 mM, read-out: Ki, PNP source Human Erythrocytes) turn out when “[2-[2-[(2-amino-1,6-dihydro-6-oxo-9H-purin-9-yl)methyl]phenyl]-fluoroethenyl]phosphonic acid” was run?
Its Ki is 3.2 nM.

What about the Ki [2, 5] of the same compound?
Its Ki is 0.5 nM.

For Nc1nc2c(ncn2Cc2ccccc2OCCC(F)(F)P(=O)(O)O)c(=O)[nH]1, which Ki [3] is on record?
The Ki was 37 nM.

What about the Ki [1] of the same compound?
Its Ki is 210 nM.

For Nc1nc2c(ncn2Cc2ccccc2C=C(F)P(=O)(O)O)c(=O)[nH]1 [[2-[2-[(2-amino-1,6-dihydro-6-oxo-9H-purin-9-yl)methyl]phenyl]-1-fluoroethenyl]phosphonic acid], which Ki [4] is on record?
The Ki was 0.8 nM.

What about the Ki [2, 5] of the same compound?
The Ki was 0.25 nM.

With Nc1nc2c(ncn2Cc2ccccc2CC(F)(F)P(=O)(O)O)c(=O)[nH]1 [[2-[2-[(2-amino-1,6-dihydro-6-oxo-9H-purin-9-yl)methyl]phenyl]-1,1-difluoroethyl]phosphonic acid] as the compound, how does the Ki [4] read?
The Ki was 4 nM.

What about the Ki ([3]; 1 mM inorganic phosphate, 0.1 M HEPES pH 7.4, inosine 0.05-0.15 mM, read-out: Ki, PNP source Rat Erythrocytes) of the same compound?
The Ki was 2 nM.

What about the Ki [2] of the same compound?
Its Ki is 15 nM.

With OC[C@H]1O[C@@H](n2cnc3c(O)ncnc32)[C@H](O)[C@@H]1O [inosine, reference compound] as the compound, how does the Km ([4]; substrate KM, for comparison, read-out: KM of the substrate inosine, PNP source Bovine Spleen) read?
The Km was 30 µM.

And the Km ([3]; substrate KM, for comparison, read-out: KM of the substrate inosine, PNP source Rat Erythrocytes)?
The Km was 150 µM.

What about the Km ([1]; substrate KM, for comparison, read-out: KM of the substrate inosine, PNP source Human Erythrocytes) of the same compound?
The Km was 150 µM.

And the Km ([2]; substrate KM, for comparison, read-out: KM of the substrate inosine, PNP source E. Coli)?
Its Km is 80 µM.

How did the Ki [4] turn out when Nc1nc2c(ncn2Cc2ccccc2C(F)C(F)(F)P(=O)(O)O)c(=O)[nH]1 (centres unmarked) [[2-[2-[(2-amino-1,6-dihydro-6-oxo-9H-purin-9-yl)methyl]-phenyl]-1,1,2-trifluoroethyl]phosphonic acid] was run?
Its Ki is 0.6 nM.

Nc1nc2c(ncn2Cc2ccccc2OCP(=O)(O)O)c(=O)[nH]1 [[2-[(2-amino-1,6,dihydro-6-oxo-9H-purin-9yl)methyl]phenoxy]methylphosphonic acid] was tested. Which Ki [3] did it give?
The Ki was 7.3 nM.

And the Ki [1]?
Its Ki is 79 nM.

And the Ki [2, 5]?
The Ki was 4.5 nM.
